Consider ten compounds from patent EP0791603A2, “Pure somatostatin antagonist and methods of use thereof” (American Cyanamid Company, priority 1996, dated 1997).

Each structure is given as a SMILES string. Positions of bridges follow the written chain, without caps; N, C: chain ends. Non-standard residues stand in square brackets, D forms with d. Residues, ends and D or L forms follow the SMILES beside them. NMePhe(4-NO2) = CN[C@@H](Cc1ccc([N+](=O)[O-])cc1)C(=O)O; Phe(4-NO2) = N[C@@H](Cc1ccc([N+](=O)[O-])cc1)C(=O)O; 2Nal = N[C@@H](Cc1ccc2ccccc2c1)C(=O)O; d2Nal = N[C@H](Cc1ccc2ccccc2c1)C(=O)O; Abu = CC[C@H](N)C(=O)O

The target in experiment [1] is T1, rat somatostatin receptor subtype 2 (SSTR2) (Rattus norvegicus, UniProt P30680).
T1 construct: expressed in transfected cells; host or cells: Saccharomyces cerevisiae LY364
T1 sequence (P30680 whole entry): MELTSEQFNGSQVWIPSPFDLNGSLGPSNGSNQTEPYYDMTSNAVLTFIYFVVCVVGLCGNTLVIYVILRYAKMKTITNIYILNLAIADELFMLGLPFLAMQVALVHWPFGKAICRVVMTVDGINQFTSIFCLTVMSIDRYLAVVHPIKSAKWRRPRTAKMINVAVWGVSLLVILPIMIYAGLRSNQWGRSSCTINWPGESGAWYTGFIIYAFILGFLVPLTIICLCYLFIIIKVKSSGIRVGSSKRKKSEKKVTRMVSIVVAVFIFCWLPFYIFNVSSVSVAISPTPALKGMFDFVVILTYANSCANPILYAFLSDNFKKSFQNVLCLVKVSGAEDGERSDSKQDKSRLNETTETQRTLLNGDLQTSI
Kind of experiment: Yeast assay, somatostatin antagonist activity (zone of no growth in presence of S-14). To be noted: rating on a scale of 1-5 from zone of no growth; 5µL of 1 mg/mL S-14 added to each plate; S. Cerevisiae LY364. In kind it is cell-based. Details: key: 1 is minimum antagonist activity; 5 is maximum antagonist activity; -: When no activity is observed, the result is indicated by a dash. As for the experimental part:
To evaluate the somatostatin antagonist activity of a test compound, the above procedure is followed except on day 3, 5µL of 1 mg/mL of somatostatin, S-14, is added to each plate, before applying the test compound. If the test compound is an antagonist of somatostatin, then a zone of no growth will appear within the cell growth zone. This zone of no growth is measured and the test compound is given an antagonist rating on a scale of 1-5 wherein 1 is minimum antagonist activity and 5 is maximum antagonist activity.
The results are shown in Table I. When no activity is observed, the result is indicated by a dash.
• 1) Inoculate 2 mL SCD-ura-trp liquid medium in Falcon 2051 tube with a single colony taken from a plate containing LY364 (MATa ura3-52 leu2 his3 trp1 lys2 ade2 far1:: LYS2 fus1:: FUS1-HIS3 gpal::hisG sst2::ADE2 bearing the SSTR2 expression plasmid, pJH2, and the G protein expression plasmid, pLP82)cells. • 2) Incubate overnight in a roller drum at 30°C.
Day 2. • 1) Harvest the cells by centrifugation (3 krpm, 5 min, room temp). • 2) Re-suspend with 5 mL of sterile water. • 3) Harvest again by centrifugation. • 4) Re-suspend in 5 mL SCL-ura-trp liquid medium. • 5) Incubate for 6 hours in a roller drum at 30°C. • 6) Harvest the cells again by centrifugation. • 7) Re-suspend in 5 mL SCG-ura-trp liquid medium. • 8) Incubate overnight in a roller drum at 30°C.
Day 3. • 1) Autoclave SCG-ura-trp-his pH 6.8 agar medium. • 2) Cool to 55°C in water bath. • 3) Add 1 mL of LY364 culture to 1 liter of agar medium. • 4) Stir vigorously for 1 min. • 5) Pour 150 mL each into five 500 cm^2 plates. • 6) Allow to cool on level surface. • 7) Apply test compound.
On day 3, add 5µL 1 mg/mL S-14 to each plate. Day 5. Begin checking plates for growth around applied compounds. Day 7. Growth in response to somatostatin should be readily observable. Rate extent of growth or inhibition of growth according to rating scale described hereinabove.

A further experiment has as its target SSTR2 (Rattus norvegicus, UniProt P30680). Kind of experiment: Cyclic AMP accumulation in intact cells (adrenal binding protein method). Type of experiment: cell-based. Particulars: forskalin stimulated c-AMP levels in intact cells, 15 minutes at 37°C; read-out: % IA (% intrinsic activity). The text has this:
Cyclic AMP accumulation assays are used to determine the functional coupling of somatostatin receptors to effectors. All five cloned somatostatin receptors inhibit cyclic AMP accumulation and adenylyl cyclone activity ^1 ^,2,3,4,5. This evaluation measures cyclic AMP accumulation from intact cells using the adrenal binding protein method. Signal transduction by somatostatin is mediated by lowering intracellular c-AMP levels. This functional assay measures the ability of the test compound to inhibit the effect of somatostatin on forskalin stimulated c-AMP levels. ^1 K. Yasuda, S. Rens-Damiano, C. D. Breder, S. F. Law, C. B. Saper, T. Reisine and G. I. Bell, J. Biol. Chem. 267,20422-20428 (1992). ^2 J. F. Bruno, Y. Xu, J. Song and M. Berelowitz, Proc. Natl. Acad. Sci. USA 89, 11151-11155 (1992). ^3 A. M. O'Carrol, S. J. Lolait, M. König and L. Mahan, Mol. Pharmacol. 42, 939-946 (1992). ^4 J. R. Hadcock, J. Strnad and C. M. Eppler, Mol. Pharmacol. 45, 410-416 (1994). ^5 J. Strnad, C. M. Eppler, M. Corbett and J. R. Hadcock, Biochem. Biophys. Res. Commun.191, 968-976 (1993).
Bovine adrenal gland extracts are prepared according to the method of Brown et al^6 with minor modifications. […] Two-four adrenals are thawed and the cortices are separated on ice: chopped into small pieces; resuspended in 1.5 volumes of buffer containing 0.25 M sucrose, 50 mM Tris-HCl pH 7.4, 25 mM KCl, 5 mM MgCl2 and protease inhibitors (5 µg/ml leupeptin, 5µg/ml aprotinin, 100 µg/ml bacitracin, and 100 µg/ml benzamidine; homogenized with a Polytron and centrifuged for 5 minutes. The resultant supernatant is saved and centrifuged for 15 minutes. This resultant supernatant is saved and stored as 1 mL aliquots at -80°C. Four adrenals glands are usually sufficient to prepare 30-50 one mL aliquots. Each preparation is tested with standards at different dilutions before use in the following experiment. ^6 B. L. Brown, J. D. M. Albano, R. P. Ekins and A. M. Sgherzi, Biochem. J. 121, 561-562 (1971).
Somatostatin-mediated inhibition of cyclic AMP accumulation is measured in intact cells co-incubated with the diterpene forskalin (5 µM) which activates adenylyl cyclase directly and stimulates cyclic AMP accumulation in cells. The medium is aspirated from two 100 mm plates of cells, a 5 mL portion of phosphate-buffered saline containing 2 mM EDTA is added to each plate. The cells are washed off the plate, without scraping. The cells are then pelleted and resuspended in Kreb's Ringers Phosphate (KRP) containing 2 mM CaCl2 (added fresh), washed once and resuspended in 2 ml of KRP with a CaCl2 containing 100 µM IBMX. The cells are counted and the concentration of cells is adjusted to 50,000/70 µl and incubated 15 minutes at room temperature before starting the assay.
Polypropylene tubes (12 x 75) are labelled (test samples are done in triplicate including controls). Test samples are prepared containing the following: no added peptide sample (basal), forskalin alone (10 µM final), and forskalin plus various amounts of S-14 (1 X 10^-10M to 1 X 10^-6M, final). The first two steps are done on the bench top. Volumes are adjusted with KRP and 10 µl 1 mM IBMX is added to each tube. The tubes are placed in a shaking 37°C water bath and 70 µl cells is added at 15 second intervals until final volume/tube is 100 µL (concentration of cells is 25-100,000/tube). The tubes are incubated for 15 minutes at 37°C, treated with 10 µl of 1.0 N HCl at 10 second intervals and transfered to an ice bath for 3 minutes (tubes may be stored overnight). The samples are neutralized with […] 1.0 N NaOH containing 250 mM Tris, pH 7.4.
The test tube racks are placed half way down in a large chest of ice. A 50µl portion of cyclic AMP standard (Sigma) is aliquoted to each tube in triplicate (e.g. 0, 0.5, 1.0, 2.0, 4.0, 8.0, 16.0 pmoles/tube), then 70µl KRP is added to each tube of standard. One set of tubes containing 220 µl KRP is set up for the background. […]

SSTR2, sequence (P30680 whole entry): as above

On to `CC(=O)N[C@@H](Cc1ccc2ccccc2c1)C(=O)N[C@@H]1CSSC[C@@H](C(=O)N[C@@H](Cc2ccc(O)cc2)C(N)=O)NC(=O)[C@H]([C@@H](C)O)NC(=O)[C@H](CCCCN)NC(=O)[C@@H](Cc2c[nH]c3ccccc23)NC(=O)[C@H](Cc2ccc(O)cc2)NC1=O` (Ac-[2Nal][dC]Y[dW]KTCY-NH2; disulfide 2-7 (inferred)), for which the “Yeast Assay Antagonist” value in experiment [1] is given as 1. In addition, the Emax on SSTR2 is -26%.

For `CN[C@@H](Cc1ccc([N+](=O)[O-])cc1)C(=O)N[C@@H]1CSSC[C@@H](C(=O)N[C@@H](Cc2ccc(O)cc2)C(N)=O)NC(=O)[C@H](C(C)C)NC(=O)[C@H](CCCCN)NC(=O)[C@@H](Cc2c[nH]c3ccccc23)NC(=O)[C@H](Cc2ccc(O)cc2)NC1=O` (H-[NMePhe(4-NO2)][dC]Y[dW]KVCY-NH2; disulfide 2-7 (inferred)), the “Yeast Assay Antagonist” value in experiment [1] is on record as 5. Further, the Emax at SSTR2 was determined as 9%.

Consider `CC(C)[C@@H]1NC(=O)[C@H](CCCCN)NC(=O)[C@@H](Cc2c[nH]c3ccccc23)NC(=O)[C@H](Cc2ccc(O)cc2)NC(=O)[C@H](NC(=O)[C@@H](N)Cc2ccc([N+](=O)[O-])cc2)CSSC[C@@H](C(=O)N[C@@H](Cc2ccc(O)cc2)C(N)=O)NC1=O` (H-[Phe(4-NO2)][dC]Y[dW]KVCY-NH2; disulfide 2-7 (inferred)), for which the “Yeast Assay Antagonist” value in experiment [1] is 5. Besides, the Emax on SSTR2 is 11%.

`CC(=O)N[C@@H](Cc1ccc([N+](=O)[O-])cc1)C(=O)N[C@@H]1CSSC[C@@H](C(=O)N[C@H](Cc2ccc(O)cc2)C(N)=O)NC(=O)[C@H]([C@@H](C)O)NC(=O)[C@H](CCCCN)NC(=O)[C@@H](Cc2c[nH]c3ccccc23)NC(=O)[C@H](Cc2ccc(O)cc2)NC1=O`: in experiment [1], the “Yeast Assay Antagonist” value came to 4. Moreover, at SSTR2, the Emax is -3%.

With `C[C@@H](O)[C@@H]1NC(=O)[C@H](CCCCN)NC(=O)[C@@H](Cc2c[nH]c3ccccc23)NC(=O)[C@H](Cc2ccc(O)cc2)NC(=O)[C@H](NC(=O)[C@@H](N)Cc2ccc([N+](=O)[O-])cc2)CSSC[C@@H](C(=O)N[C@@H](Cc2ccc(O)cc2)C(N)=O)NC1=O`, the “Yeast Assay Antagonist” value in experiment [1] is 5. Moreover, the Emax at SSTR2 stood at 5%.

As to `CC(C)[C@@H]1NC(=O)[C@H](CCCCN)NC(=O)[C@@H](Cc2c[nH]c3ccccc23)NC(=O)[C@H](Cc2ccc(O)cc2)NC(=O)[C@H](NC(=O)[C@H](N)Cc2ccc3ccccc3c2)CSSC[C@@H](C(=O)N[C@@H](Cc2ccc(O)cc2)C(N)=O)NC1=O` (H-[d2Nal][dC]Y[dW]KVCY-NH2; disulfide 2-7), the “Yeast Assay Antagonist” value in experiment [1] was found to be 2. The Emax on SSTR2 was 8%.

As to `C[C@@H](O)[C@@H]1NC(=O)[C@H](CCCCN)NC(=O)[C@@H](Cc2c[nH]c3ccccc23)NC(=O)[C@H](Cc2ccc(O)cc2)NC(=O)[C@H](NC(=O)[C@@H](N)Cc2ccc([N+](=O)[O-])cc2)CSSC[C@@H](C(=O)N[C@H](Cc2ccc(O)cc2)C(N)=O)NC1=O`, the “Yeast Assay Antagonist” value in experiment [1] came to 4. Besides, on SSTR2, the Emax amounted to 12%.

On to `CC[C@@H]1NC(=O)[C@H](CCCCN)NC(=O)[C@@H](Cc2c[nH]c3ccccc23)NC(=O)[C@H](Cc2ccc(O)cc2)NC(=O)[C@H](NC(=O)[C@@H](N)Cc2ccc([N+](=O)[O-])cc2)CSSC[C@@H](C(=O)N[C@@H](Cc2ccc(O)cc2)C(N)=O)NC1=O` (H-[Phe(4-NO2)][dC]Y[dW]K[Abu]CY-NH2; disulfide 2-7 (inferred)), for which the “Yeast Assay Antagonist” value in experiment [1] was 3. In addition, the Emax on SSTR2 worked out at 21%.

In the case of `CC(C)[C@@H]1NC(=O)[C@H](CCCCN)NC(=O)[C@@H](Cc2c[nH]c3ccccc23)NC(=O)[C@H](Cc2ccc(O)cc2)NC(=O)[C@H](NC(=O)[C@@H](N)Cc2ccc3ccccc3c2)CSSC[C@@H](C(=O)N[C@@H](Cc2ccc(O)cc2)C(N)=O)NC1=O` (H-[2Nal][dC]Y[dW]KVCY-NH2; disulfide 2-7; N-terminus assumed), the “Yeast Assay Antagonist” value in experiment [1] is 3. In addition, the Emax at SSTR2 is 13%.

For the compound `CC(C)[C@@H]1NC(=O)[C@H](CCCCN)NC(=O)[C@@H](Cc2c[nH]c3ccccc23)NC(=O)[C@H](Cc2ccc(O)cc2)NC(=O)[C@H](NC(=O)[C@@H](N)Cc2ccc([N+](=O)[O-])cc2)CSSC[C@@H](C(=O)N[C@@H](Cc2ccc3ccccc3c2)C(N)=O)NC1=O` (H-[Phe(4-NO2)][dC]Y[dW]KVC[2Nal]-NH2; disulfide 2-7 (inferred)), the “Yeast Assay Antagonist” value in experiment [1] amounted to 2. At SSTR2, the Emax is 8%.
